Measurements published in the kinase profiling compilation of Christmann-Franck et al. (2016).

Assays:
Experiment in all cases: KINOMEscan competition binding
Details in all cases: compound 10.0 µM
BRAF (human) = BRAF (human) (UniProt P15056)
BTK (human) = BTK (human) (UniProt Q06187)
CASK (human) = CASK (human) (UniProt O14936)
CDK13 (human) = CDK13 (human) (UniProt Q14004)
CDK2 (human) = CDK2 (human) (UniProt P24941)
CDKL3 (human) = CDKL3 (human) (UniProt Q8IVW4)
CPK1 (P.falciparum) = tested on: CPK1 (P.falciparum)
DDR1 (human) = DDR1 (human) (UniProt Q08345)
DSTYK (human) = DSTYK (human) (UniProt Q6XUX3)
[1] = tested on: EGFR (human), P00533 [746-750 del]
[2] = tested on: EGFR (human), P00533 [L861Q]
EPHB6 (human) = EPHB6 (human) (UniProt O15197)
ERN1 (human) = ERN1 (human) (UniProt O75460)
Sequence of ERN1 (human) (O75460 whole entry, looked up): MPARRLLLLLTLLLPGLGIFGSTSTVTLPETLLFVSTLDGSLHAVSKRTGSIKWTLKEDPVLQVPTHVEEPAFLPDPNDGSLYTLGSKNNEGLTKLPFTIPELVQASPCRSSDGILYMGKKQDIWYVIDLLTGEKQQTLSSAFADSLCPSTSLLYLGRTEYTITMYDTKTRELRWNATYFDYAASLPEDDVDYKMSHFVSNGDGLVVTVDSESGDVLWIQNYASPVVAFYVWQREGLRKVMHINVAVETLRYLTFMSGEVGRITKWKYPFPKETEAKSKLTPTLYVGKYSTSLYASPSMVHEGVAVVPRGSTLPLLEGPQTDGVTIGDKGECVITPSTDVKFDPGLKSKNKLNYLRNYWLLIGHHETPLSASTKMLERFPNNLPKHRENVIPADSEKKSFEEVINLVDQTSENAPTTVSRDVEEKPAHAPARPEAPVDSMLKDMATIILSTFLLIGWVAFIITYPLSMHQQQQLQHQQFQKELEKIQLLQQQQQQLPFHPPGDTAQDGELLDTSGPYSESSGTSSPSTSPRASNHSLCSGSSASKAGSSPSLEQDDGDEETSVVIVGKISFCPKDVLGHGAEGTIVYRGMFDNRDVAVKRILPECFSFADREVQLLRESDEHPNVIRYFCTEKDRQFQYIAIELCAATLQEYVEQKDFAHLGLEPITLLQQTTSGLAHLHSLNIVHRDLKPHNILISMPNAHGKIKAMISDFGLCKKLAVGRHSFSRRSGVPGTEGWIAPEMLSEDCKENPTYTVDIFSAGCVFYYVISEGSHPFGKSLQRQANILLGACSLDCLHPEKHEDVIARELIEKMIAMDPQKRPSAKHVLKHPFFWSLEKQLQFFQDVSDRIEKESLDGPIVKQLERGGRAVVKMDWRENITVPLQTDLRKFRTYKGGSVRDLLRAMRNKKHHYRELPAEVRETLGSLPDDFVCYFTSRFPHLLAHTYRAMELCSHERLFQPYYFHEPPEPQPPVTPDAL

GRK7 (human) = GRK7 (human) (UniProt Q8WTQ7)
HIPK2 (human) = HIPK2 (human) (UniProt Q9H2X6)
HUNK (human) = HUNK (human) (UniProt P57058)
IRAK4 (human) = IRAK4 (human) (UniProt Q9NWZ3)
[3] = tested on: KIT (human), P10721 [V559D/T670I]
MAP3K1 (human) = MAP3K1 (human) (UniProt Q13233)
Sequence of MAP3K1 (human) (Q13233 whole entry, looked up): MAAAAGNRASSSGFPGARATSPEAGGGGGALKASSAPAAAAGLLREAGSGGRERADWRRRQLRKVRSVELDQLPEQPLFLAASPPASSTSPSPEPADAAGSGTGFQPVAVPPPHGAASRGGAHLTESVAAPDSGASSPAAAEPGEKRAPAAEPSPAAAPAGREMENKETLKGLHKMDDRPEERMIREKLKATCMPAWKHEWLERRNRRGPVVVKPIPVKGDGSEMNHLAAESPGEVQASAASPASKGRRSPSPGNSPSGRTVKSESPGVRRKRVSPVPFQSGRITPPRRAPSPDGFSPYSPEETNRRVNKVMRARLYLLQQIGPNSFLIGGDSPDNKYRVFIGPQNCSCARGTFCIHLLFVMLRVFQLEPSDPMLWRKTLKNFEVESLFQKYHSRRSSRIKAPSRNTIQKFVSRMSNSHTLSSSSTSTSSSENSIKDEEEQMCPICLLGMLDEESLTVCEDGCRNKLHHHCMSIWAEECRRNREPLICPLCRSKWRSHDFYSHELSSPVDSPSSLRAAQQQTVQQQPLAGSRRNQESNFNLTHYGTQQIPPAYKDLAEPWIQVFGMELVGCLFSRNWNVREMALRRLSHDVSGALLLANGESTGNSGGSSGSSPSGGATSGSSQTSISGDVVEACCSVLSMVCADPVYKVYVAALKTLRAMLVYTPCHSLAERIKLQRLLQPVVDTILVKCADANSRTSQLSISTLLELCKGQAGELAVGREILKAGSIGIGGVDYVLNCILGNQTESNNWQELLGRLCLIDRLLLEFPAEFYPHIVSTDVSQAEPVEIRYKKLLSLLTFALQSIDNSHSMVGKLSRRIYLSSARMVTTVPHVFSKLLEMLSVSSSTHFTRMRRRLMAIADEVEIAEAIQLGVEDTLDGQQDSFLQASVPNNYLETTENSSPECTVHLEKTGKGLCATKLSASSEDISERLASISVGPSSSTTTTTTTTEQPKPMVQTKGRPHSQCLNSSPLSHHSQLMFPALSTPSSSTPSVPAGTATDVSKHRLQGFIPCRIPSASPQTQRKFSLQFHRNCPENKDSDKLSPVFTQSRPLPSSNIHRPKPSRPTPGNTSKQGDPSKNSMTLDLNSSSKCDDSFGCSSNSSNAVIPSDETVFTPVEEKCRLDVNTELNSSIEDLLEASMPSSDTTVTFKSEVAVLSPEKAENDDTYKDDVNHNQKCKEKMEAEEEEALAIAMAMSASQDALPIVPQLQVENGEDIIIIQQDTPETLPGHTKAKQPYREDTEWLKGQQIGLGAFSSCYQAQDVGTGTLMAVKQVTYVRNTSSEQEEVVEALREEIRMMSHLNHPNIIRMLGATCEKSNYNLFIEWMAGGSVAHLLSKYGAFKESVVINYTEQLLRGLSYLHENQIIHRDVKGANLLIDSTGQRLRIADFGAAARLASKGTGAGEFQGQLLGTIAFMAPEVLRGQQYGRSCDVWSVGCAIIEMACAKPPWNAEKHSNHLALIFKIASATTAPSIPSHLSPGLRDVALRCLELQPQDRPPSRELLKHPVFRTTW

MAP3K15 (human) = MAP3K15 (human) (UniProt Q6ZN16)
MET (human) = MET (human) (UniProt P08581)
MTOR (human) = MTOR (human) (UniProt P42345)
MYLK3 (human) = MYLK3 (human) (UniProt Q32MK0)
PI4KB (human) = PI4KB (human) (UniProt Q9UBF8)
PIK3CA (human) = PIK3CA (human) (UniProt P42336)
Sequence of PIK3CA (human) (P42336 whole entry, looked up): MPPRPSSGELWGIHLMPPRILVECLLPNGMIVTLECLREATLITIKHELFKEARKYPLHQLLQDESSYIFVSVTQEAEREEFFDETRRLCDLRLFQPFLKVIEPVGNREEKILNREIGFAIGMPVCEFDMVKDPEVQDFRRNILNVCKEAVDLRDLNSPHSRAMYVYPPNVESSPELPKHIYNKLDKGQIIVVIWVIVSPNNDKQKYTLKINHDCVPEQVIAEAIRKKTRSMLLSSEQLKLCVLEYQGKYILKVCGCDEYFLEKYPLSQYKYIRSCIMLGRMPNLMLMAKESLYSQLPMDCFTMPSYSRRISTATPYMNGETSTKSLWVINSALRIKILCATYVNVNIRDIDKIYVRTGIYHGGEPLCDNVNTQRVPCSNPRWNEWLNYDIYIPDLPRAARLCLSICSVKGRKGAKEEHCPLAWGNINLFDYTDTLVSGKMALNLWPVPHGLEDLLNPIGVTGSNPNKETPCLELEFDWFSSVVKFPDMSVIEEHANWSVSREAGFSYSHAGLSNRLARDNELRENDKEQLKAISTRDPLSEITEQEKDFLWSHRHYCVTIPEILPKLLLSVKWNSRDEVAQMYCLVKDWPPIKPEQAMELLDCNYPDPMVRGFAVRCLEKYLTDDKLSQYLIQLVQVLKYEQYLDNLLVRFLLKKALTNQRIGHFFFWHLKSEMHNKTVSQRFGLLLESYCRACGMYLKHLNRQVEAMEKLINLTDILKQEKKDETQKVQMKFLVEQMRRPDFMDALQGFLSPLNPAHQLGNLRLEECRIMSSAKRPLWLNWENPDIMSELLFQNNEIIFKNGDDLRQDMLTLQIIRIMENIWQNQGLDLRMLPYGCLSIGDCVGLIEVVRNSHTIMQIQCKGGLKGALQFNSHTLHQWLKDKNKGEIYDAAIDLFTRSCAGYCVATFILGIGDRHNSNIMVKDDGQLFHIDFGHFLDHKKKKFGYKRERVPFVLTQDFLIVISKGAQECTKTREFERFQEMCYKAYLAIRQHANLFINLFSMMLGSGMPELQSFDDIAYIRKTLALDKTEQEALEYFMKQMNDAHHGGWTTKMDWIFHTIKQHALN

[4] = tested on: PIK3CA (human), P42336 [C420R]
Sequence of PIK3CA (human), P42336 [C420R] (P42336 whole entry C420R, looked up): as the sequence (P42336 whole entry, looked up) above, with C420R counted along it

[5] = tested on: PIK3CA (human), P42336 [E545A]
Sequence of PIK3CA (human), P42336 [E545A] (P42336 whole entry E545A, looked up): as the sequence (P42336 whole entry, looked up) above, with E545A counted along it

[6] = tested on: PIK3CA (human), P42336 [E545K]
Sequence of PIK3CA (human), P42336 [E545K] (P42336 whole entry E545K, looked up): as the sequence (P42336 whole entry, looked up) above, with E545K counted along it

[7] = tested on: PIK3CA (human), P42336 [H1047Y]
Sequence of PIK3CA (human), P42336 [H1047Y] (P42336 whole entry H1047Y, looked up): as the sequence (P42336 whole entry, looked up) above, with H1047Y counted along it

[8] = tested on: PIK3CA (human), P42336 [Q546K]
Sequence of PIK3CA (human), P42336 [Q546K] (P42336 whole entry Q546K, looked up): as the sequence (P42336 whole entry, looked up) above, with Q546K counted along it

PIP4K2C (human) = PIP4K2C (human) (UniProt Q8TBX8)
PIP5K1C (human) = PIP5K1C (human) (UniProt O60331)
Sequence of PIP5K1C (human) (O60331 whole entry, looked up): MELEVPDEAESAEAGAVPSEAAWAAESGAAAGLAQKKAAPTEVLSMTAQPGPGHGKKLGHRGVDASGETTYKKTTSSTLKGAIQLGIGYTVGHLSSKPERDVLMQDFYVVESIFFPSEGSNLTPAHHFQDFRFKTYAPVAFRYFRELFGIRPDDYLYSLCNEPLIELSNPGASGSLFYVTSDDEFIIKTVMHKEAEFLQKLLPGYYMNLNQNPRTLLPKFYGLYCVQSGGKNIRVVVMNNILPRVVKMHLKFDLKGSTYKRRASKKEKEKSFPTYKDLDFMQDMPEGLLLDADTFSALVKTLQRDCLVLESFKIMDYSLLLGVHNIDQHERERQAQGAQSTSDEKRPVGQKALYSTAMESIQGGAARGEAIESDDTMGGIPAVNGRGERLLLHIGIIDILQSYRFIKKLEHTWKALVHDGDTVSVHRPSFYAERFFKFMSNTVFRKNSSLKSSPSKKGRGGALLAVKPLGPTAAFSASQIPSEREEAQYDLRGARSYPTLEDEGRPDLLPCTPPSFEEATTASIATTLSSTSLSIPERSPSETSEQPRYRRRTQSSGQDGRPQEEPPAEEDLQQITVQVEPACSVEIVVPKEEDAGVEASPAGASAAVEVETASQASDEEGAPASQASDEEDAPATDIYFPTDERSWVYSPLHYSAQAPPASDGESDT

PRKCI (human) = PRKCI (human) (UniProt P41743)
PRPF4B (human) = PRPF4B (human) (UniProt Q13523)
SBK1 (human) = SBK1 (human) (UniProt Q52WX2)
SGK3 (human) = SGK3 (human) (UniProt Q96BR1)
Sequence of SGK3 (human) (Q96BR1 whole entry, looked up): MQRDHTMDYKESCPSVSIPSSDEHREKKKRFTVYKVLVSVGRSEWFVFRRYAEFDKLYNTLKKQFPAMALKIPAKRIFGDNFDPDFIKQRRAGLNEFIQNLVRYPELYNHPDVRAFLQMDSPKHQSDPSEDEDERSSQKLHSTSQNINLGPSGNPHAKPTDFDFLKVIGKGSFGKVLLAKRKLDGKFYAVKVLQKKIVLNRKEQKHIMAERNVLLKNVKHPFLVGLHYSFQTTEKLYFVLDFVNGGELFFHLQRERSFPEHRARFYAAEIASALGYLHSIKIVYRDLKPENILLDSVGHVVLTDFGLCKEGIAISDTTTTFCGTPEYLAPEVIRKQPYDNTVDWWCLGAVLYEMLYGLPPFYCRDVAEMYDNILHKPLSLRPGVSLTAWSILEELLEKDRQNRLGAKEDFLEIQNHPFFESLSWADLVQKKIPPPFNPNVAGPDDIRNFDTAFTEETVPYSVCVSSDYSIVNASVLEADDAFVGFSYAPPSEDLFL

SIK3 (human) = SIK3 (human) (UniProt Q9Y2K2)
SNRK (human) = SNRK (human) (UniProt Q9NRH2)
TBK1 (human) = TBK1 (human) (UniProt Q9UHD2)
VRK2 (human) = VRK2 (human) (UniProt Q86Y07)

Row | Structure (SMILES) | kinase still bound, per cent of control (BRAF (human)) [%] | kinase still bound, per cent of control (BTK (human)) [%] | kinase still bound, per cent of control (CASK (human)) [%] | kinase still bound, per cent of control (CDK13 (human)) [%] | kinase still bound, per cent of control (CDK2 (human)) [%] | kinase still bound, per cent of control (CDKL3 (human)) [%] | kinase still bound, per cent of control (CPK1 (P.falciparum)) [%] | kinase still bound, per cent of control (DDR1 (human)) [%] | kinase still bound, per cent of control (DSTYK (human)) [%] | kinase still bound, per cent of control (EPHB6 (human)) [%] | kinase still bound, per cent of control (ERN1 (human)) [%] | kinase still bound, per cent of control (GRK7 (human)) [%] | kinase still bound, per cent of control (HIPK2 (human)) [%] | kinase still bound, per cent of control (HUNK (human)) [%] | kinase still bound, per cent of control (IRAK4 (human)) [%] | kinase still bound, per cent of control [3] [%] | kinase still bound, per cent of control (MAP3K1 (human)) [%] | kinase still bound, per cent of control (MAP3K15 (human)) [%] | kinase still bound, per cent of control (MET (human)) [%] | kinase still bound, per cent of control (MTOR (human)) [%] | other results
1 | Cc1ccc(NC(=O)c2cccc(C(C)(C)C#N)c2)cc1Nc1ccc2ncn(C)c(=O)c2c1 | 0 | 66 | 96 | 100 | 100 | 100 | 0.75 | 0 | 78 | 2.4 | 86 | 91 | 73 | 100 | 83 | 0.35 | 76 | 100 | 89 | 100 | kinase still bound, per cent of control [1]: 15%; kinase still bound, per cent of control [2]: 34%; kinase still bound, per cent of control (MYLK3 (human)): 100%; kinase still bound, per cent of control (PI4KB (human)): 82%; kinase still bound, per cent of control (PIK3CA (human)): 100%; kinase still bound, per cent of control [4]: 100%; kinase still bound, per cent of control [5]: 89%; kinase still bound, per cent of control [6]: 100%; kinase still bound, per cent of control [7]: 100%; kinase still bound, per cent of control [8]: 88%; kinase still bound, per cent of control (PIP4K2C (human)): 100%; kinase still bound, per cent of control (PIP5K1C (human)): 75%; kinase still bound, per cent of control (PRKCI (human)): 100%; kinase still bound, per cent of control (PRPF4B (human)): 100%; kinase still bound, per cent of control (SBK1 (human)): 79%; kinase still bound, per cent of control (SGK3 (human)): 100%; kinase still bound, per cent of control (SIK3 (human)): 100%; kinase still bound, per cent of control (SNRK (human)): 100%; kinase still bound, per cent of control (TBK1 (human)): 100%; kinase still bound, per cent of control (VRK2 (human)): 100%
2 | N#Cc1c(NC(=O)c2cccc3ccccc23)sc2c1CCCC2 | 100 | 90 | 71 | 87 | 95 | 82 | 81 | 71 | 100 | 85 | 90 | 88 | 100 | 95 | 100 | 78 | 59 | 100 | 66 | 100 | kinase still bound, per cent of control (MYLK3 (human)): 100%; kinase still bound, per cent of control (PI4KB (human)): 100%; kinase still bound, per cent of control (PIK3CA (human)): 99%; kinase still bound, per cent of control [4]: 92%; kinase still bound, per cent of control [5]: 80%; kinase still bound, per cent of control [6]: 88%; kinase still bound, per cent of control [7]: 100%; kinase still bound, per cent of control [8]: 79%; kinase still bound, per cent of control (PIP4K2C (human)): 100%; kinase still bound, per cent of control (PIP5K1C (human)): 100%; kinase still bound, per cent of control (PRKCI (human)): 63%; kinase still bound, per cent of control (PRPF4B (human)): 100%; kinase still bound, per cent of control (SBK1 (human)): 100%; kinase still bound, per cent of control (SGK3 (human)): 92%; kinase still bound, per cent of control (SIK3 (human)): 65%; kinase still bound, per cent of control (SNRK (human)): 100%; kinase still bound, per cent of control (TBK1 (human)): 88%; kinase still bound, per cent of control (VRK2 (human)): 100%
3 | O=C1Nc2ccc(I)cc2/C1=C/c1cc(Br)c(O)c(Br)c1 | 0.9 | 99 | 74 | 100 | 97 | 88 | 24 | 85 | 66 | 24 | 57 | 73 | 7.6 | 2.8 | 90 | 23 | 84 | 80 | 100 | 95 | kinase still bound, per cent of control [1]: 36%; kinase still bound, per cent of control [2]: 55%; kinase still bound, per cent of control (MYLK3 (human)): 10%; kinase still bound, per cent of control (PI4KB (human)): 0.5%; kinase still bound, per cent of control (PIK3CA (human)): 85%; kinase still bound, per cent of control [4]: 100%; kinase still bound, per cent of control [5]: 86%; kinase still bound, per cent of control [6]: 100%; kinase still bound, per cent of control [7]: 76%; kinase still bound, per cent of control [8]: 97%; kinase still bound, per cent of control (PIP4K2C (human)): 100%; kinase still bound, per cent of control (PIP5K1C (human)): 19%; kinase still bound, per cent of control (PRKCI (human)): 100%; kinase still bound, per cent of control (PRPF4B (human)): 50%; kinase still bound, per cent of control (SBK1 (human)): 85%; kinase still bound, per cent of control (SGK3 (human)): 73%; kinase still bound, per cent of control (SIK3 (human)): 100%; kinase still bound, per cent of control (SNRK (human)): 99%; kinase still bound, per cent of control (TBK1 (human)): 95%; kinase still bound, per cent of control (VRK2 (human)): 82%
